Patent US5843750A, “Sorbitol kinase, process for producing the same, and substantially pure microorganism” (priority 1994, dated 1998)
Where two headings read alike, the source gives them in different places.

How the values were obtained:
[1] = system: sorbitol-6-phosphate dehydrogenase; type: biochemical, Comamonas sp. SY-77-1; conditions: for Relateive activity: 10 min; for Effect on sorbitol-6-phosphate dehydrogenase activity (in words): 1 mM metal ions; for Relative activity (5): substrate specificity of sorbitol-6-phosphate dehydrogenase, substance used as substrate
Description: Reaction mixture 1 ml consisting of 0.2M Tris-HCl buffer solution (pH 8.0) 0.25 ml, 0.1M sorbitol-6-phosphate 0.2 ml, 10 mM NAD 0.1 ml, 100 U/ml diaphorase (Asahi Chemical Industry Co.) 0.05 ml, 0.25% NTB (nitrotetrazolium blue) 0.1 ml, 10% Triton X-100 0.01 ml and distilled water 0.29 ml was pre-heated at 37° C. for 1 minute. 0.02 ml of enzyme solution was added thereto and incubated for 10 minutes.
0.1N HCl 2 ml was added to stop the reaction, and within 5 minutes optical absorption of the reaction mixture was measured using pass length 1.0 cm cell at 550 nm (As). Optical density of the blank solution of distilled water 0.02 ml in place of the enzyme solution was measured by the same procedure (Ab). Enzyme activity was measured by the difference (As-Ab) between the optical density of the enzyme solution (As) and that of the blank (Ab). A unit of enzyme is defined as an enzyme amount which produces 1μ mole of reduced NAD at 37° C. for 1 minute. Equation is as follows.
Enzyme activity (U/ml)=(As-Ab)×0.795×enzyme dilution rate

sorbitol kinase [2] = target: T1, sorbitol kinase (Enterobacter ludwigii, UniProt A0AAX3LD49); type: biochemical, Erwinia sp. SK-472-20; parameters: SK-472-20; conditions: for Relative activity as phosphate donor: activity for ATP (final concentration 2 mM) set as 100%
Description: One milliliter of a reaction mixture consisting of 0.2M Tris-HCl buffer solution (pH 8.5) 0.2 ml, 0.1M ATP 0.02 ml, 0.1M MgCl2 0.02 ml, 100 U/ml sorbitol-6-phosphate dehydrogenase (refer to referential example) 0.05 ml, 10 mM NAD 0.1 ml, 100 U/ml diaphorase (Asahi Chemical Ind. Co.) 0.05 ml, 0.25% NTB 0.1 ml, 1M sorbitol 0.1 ml, 10% Triton X-100 0.01 ml and distilled water 0.3 ml was pre-heated at 37° C. for 1 minute, and the enzyme solution 20 μl was added thereto, then the mixture was incubated for 10 minutes.
Reaction was terminated by adding 0.1N HCl 2 ml and optical density of the mixture was measured using 1.0 cm cell at 550 nm within 5 minutes (As). Also optical density of distilled water 20 μl in place of the enzyme solution was measured in the same manner as above as a blank test (Ab). Enzymatic activity is determined by difference in the absorption between the optical density of the enzyme solution (As) and the blank test (Ab), i.e. (As-Ab). A unit of enzyme activity is defined as an amount of enzyme which generate 1 μm of reduced NAD in one minutes at 37° C. and calculated by the following equation.
Enzyme activity (U/ml)=(As-AB)×0.795×dilution rate of enzyme

sorbitol kinase [3] = target: T1, sorbitol kinase; type: biochemical, Erwinia sp. SK-472-20 gene expressed in E.coli; parameters: no tag mentioned; conditions: for Relative activity on substrate: sorbitol set at 100%
Description: A reaction mixture 1 ml consisting of 100 mM Tris-HCl buffer solution (pH 8.5), 2 mM ATP, 2 mM MgCl2, 5 unit/ml sorbitol-6-phosphatedehydrogenase (refer to referential example 3), 1 mM NAD, 5 units/ml diaphorase (Asahi Chem. Ind. Co.), 0.025% nitrotetrazolium blue, 100 mMD-sorbitol and 0.1% Triton X-100 was incubated with the aliqluot diluted sonicated microbial cells 20 μl at 37° C. for 10 minutes. Reaction was stopped by adding 0.1N HCl 2.0 ml and the optical absorption at 550 nm was measured for determination of sorbitol kinase activity. For control study, sonicated E.coli DH1 harboring pUC118 was treated by the same way as above to determine activity of sorbitol kinase. […] Accordingly, the transformant having sorbitol kinase activity was confirmed. […] SK-472-20, consequently the physico-chemical properties of expressed protein was confirmed.

[4] = 1 mM metal ion on sorbitol-6-phosphate dehydrogenase, None = 100
[5] = substrate specificity of sorbitol kinase, substance used as substrate
[6] = enzyme produced by transformant
[7] = metal ion or chemical modifier 2 mM in the presence of 2 mM magnesium ion, None = 100
[8] = sorbitol-6-phosphate dehydrogenase

T1 sequence (A0AAX3LD49 entry or part of it): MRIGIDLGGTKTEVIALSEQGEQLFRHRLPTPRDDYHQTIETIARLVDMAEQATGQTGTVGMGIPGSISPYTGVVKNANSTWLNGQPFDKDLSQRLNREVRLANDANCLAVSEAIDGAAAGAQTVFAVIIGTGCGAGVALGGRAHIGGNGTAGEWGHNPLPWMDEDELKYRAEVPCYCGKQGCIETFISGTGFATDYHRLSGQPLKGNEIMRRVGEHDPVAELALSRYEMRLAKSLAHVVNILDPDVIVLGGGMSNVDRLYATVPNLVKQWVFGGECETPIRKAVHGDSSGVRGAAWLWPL

For `[Cl][Pb][Cl]` [PbCl2], the Relateive activity [1, 4] was 2 and the “Effect on sorbitol-6-phosphate dehydrogenase activity (in words)” value [1] was “Strong inhibition”.

For Mannose, the “Relative activity (5)” value [1] was 0, the “Relative activity (%)” value (sorbitol kinase [2]; [5]) was 0% and the “Relative activity on substrate” value (sorbitol kinase [3]; [6]) was 0%.

In the case of `[Cl-].[Cs+]` [CsCl], the Relateive activity [1, 4] is reported as 100 and the “Relative activity (%)” value (sorbitol kinase [2]; [7]) is reported as 85%.

For `[Cl-].[Na+]` [NaCl], the Relateive activity ([1]; sorbitol-6-phosphate dehydrogenase, 1000 µM) was 100 and the “Relative activity (%)” value (sorbitol kinase [2]) was 112%.

With `Nc1ncnc2c1ncn2[C@@H]1O[C@H](COP(=O)(O)OP(=O)(O)OP(=O)(O)O)[C@@H](O)[C@H]1O` [ATP] the “Relative activity as phosphate donor” value (sorbitol kinase [2]) was 100%.

`O=c1ccn([C@@H]2O[C@H](COP(=O)(O)OP(=O)(O)OP(=O)(O)O)[C@@H](O)[C@H]2O)c(=O)[nH]1` [UTP] was tested, and the “Relative activity as phosphate donor” value (sorbitol kinase [2]) was 3.6%.

With `O=P(O)(O)OC[C@H]1OC(O)[C@H](O)[C@@H](O)[C@@H]1O` (some centres unmarked) [Glucose-6-phosphate] the “Relative activity (5)” value [1] was 0.

For `Nc1nc2c(ncn2[C@@H]2O[C@H](COP(=O)(O)OP(=O)(O)OP(=O)(O)O)[C@@H](O)[C@H]2O)c(=O)[nH]1` [GTP], the “Relative activity as phosphate donor” value (sorbitol kinase [2]) was 11.8%.

In the case of `O=P(O)(O)OC[C@H]1OC(O)[C@H](O)[C@@H](O)[C@H]1O` (some centres unmarked) [galactose-6-phosphate], the “Relative activity (5)” value [1] is reported as 0.

`OC[C@H]1O[C@H](O[C@H]2[C@H](O)[C@@H](O)[C@H](O)O[C@@H]2CO)[C@H](O)[C@@H](O)[C@@H]1O` [Maltose] was tested, and the “Relative activity on substrate” value (sorbitol kinase [3]; [6]) was 0%.

`[N-]=[N+]=[N-].[Na+]` [NaN3] was tested, and the “Relative activity (%)” value (sorbitol kinase [2]; [7]) was 123%.

With Xylose the “Relative activity (%)” value (sorbitol kinase [2]; [5]) was 0%.

In the case of `O=P(O)(O)OC1O[C@H](CO)[C@H](O)[C@H](O)[C@H]1O` (some centres unmarked) [Galactose-1-phosphate], the “Relative activity (5)” value [1] is reported as 0.

`OC[C@@H](O)[C@@H](O)[C@H](O)[C@H](O)CO` [Mannitol] was tested, and the “Relative activity (5)” value [1] was 0.

For `[Cl][Cu][Cl]` [CuCl2], the Relateive activity [1, 4] was 0, the “Effect on sorbitol-6-phosphate dehydrogenase activity (in words)” value [1] was “Strong inhibition” and the “Effect on sorbitol kinase activity (in words)” value (sorbitol kinase [2]; 2 mM, Table 2) was “inhibited”. The “Relative activity (%)” value (sorbitol kinase [2]; [7]) was 0% and the “Effect on enzyme activity (in words)” value (sorbitol kinase [3]; [6]) was “inhibited”.

In the case of `O=C(CO)[C@@H](O)[C@H](O)[C@H](O)CO` [Fructose], the “Relative activity (5)” value [1] is reported as 0 and the “Relative activity on substrate” value (sorbitol kinase [3]; [6]) is reported as 0%.

Glucose was tested, and the “Relative activity (5)” value [1] was 0, the “Relative activity (%)” value (sorbitol kinase [2]; [5]) was 0% and the “Relative activity on substrate” value (sorbitol kinase [3]; [6]) was 0%.

In the case of `C=C(OP(=O)(O)O)C(=O)O` [phosphoenolpyruvate], the “Utilization as phosphate donor” value (sorbitol kinase [2]; phosphoenolpyruvate used in place of ATP in the enzyme assay) is reported as “No substantial utilization” and the “Utilization as phosphate donor” value (sorbitol kinase [3]; [6]) is reported as “substantially not”.

In the case of `NC(=S)c1ccc[n+]([C@@H]2O[C@H](COP(=O)([O-])OP(=O)(O)OC[C@H]3O[C@@H](n4cnc5c(N)ncnc54)[C@H](O)[C@@H]3O)[C@@H](O)[C@H]2O)c1` [thio NAD], the Km [1, 8] is reported as 140 ± 50 µM.

`O=C(COP(=O)(O)O)[C@@H](O)[C@H](O)[C@H](O)COP(=O)(O)O` [fructose-1,6-diphosphate] was tested, and the “Relative activity (5)” value [1] was 0.

With `OC[C@H]1O[C@H](O[C@H]2O[C@H](CO)[C@@H](O)[C@H](O)[C@H]2O)[C@H](O)[C@@H](O)[C@@H]1O` [Treharose] the “Relative activity (5)” value [1] was 0.

For `[Ca+2].[Cl-].[Cl-]` [CaCl2], the Relateive activity [1, 4] was 100, the “Relative activity (%)” value (sorbitol kinase [2]; [7]) was 44.6% and the “Effect on enzyme activity (in words)” value (sorbitol kinase [3]; [6]) was “activated”.

`[Cl][Mn][Cl]` [MnCl2] gave a Relateive activity [1, 4] of 40.

In the case of 2-deoxyglucose, the “Relative activity (%)” value (sorbitol kinase [2]; [5]) is reported as 0%.

`OC[C@@H](O)[C@@H](O)[C@H](O)[C@@H](O)CO` [Sorbitol] was tested, and the “Relative activity on substrate” value (sorbitol kinase [3]; [6]) was 100%.

With `NC(=O)c1ccc[n+]([C@@H]2O[C@H](COP(=O)([O-])OP(=O)(O)OC[C@H]3O[C@@H](n4cnc5c(N)ncnc54)[C@H](O)[C@@H]3O)[C@@H](O)[C@H]2O)c1` [NAD] the Km [1, 8] was 130 ± 50 µM.

For `OC[C@H]1O[C@@H](O[C@H]2[C@H](O)[C@@H](O)C(O)O[C@@H]2CO)[C@H](O)[C@@H](O)[C@H]1O` (some centres unmarked) [Lactose], the “Relative activity (5)” value [1] was 0 and the “Relative activity on substrate” value (sorbitol kinase [3]; [6]) was 0%.

`O[C@H]1[C@H](O)[C@@H](O)[C@H](O)[C@@H](O)[C@H]1O` [Inositol] was tested, and the “Relative activity on substrate” value (sorbitol kinase [3]; [6]) was 0%.

With `OC[C@H]1O[C@@](CO)(O[C@H]2O[C@H](CO)[C@@H](O)[C@H](O)[C@H]2O)[C@@H](O)[C@@H]1O` [Saccharose] the “Relative activity (5)” value [1] was 0 and the “Relative activity on substrate” value (sorbitol kinase [3]; [6]) was 0%.

In the case of `[Cl-].[Li+]` [LiCl], the Relateive activity [1, 4] is reported as 100 and the “Relative activity (%)” value (sorbitol kinase [2]; [7]) is reported as 74.3%.

`O=C(O)CN(CCN(CC(=O)O)CC(=O)O)CC(=O)O` [EDTA] was tested, and the “Effect on sorbitol kinase activity (in words)” value (sorbitol kinase [2]) was “inhibited” and the “Effect on enzyme activity (in words)” value (sorbitol kinase [3]) was “inhibited”.

For `[Cl-].[K+]` [KCl], the Relateive activity [1, 4] was 100, the “Effect on sorbitol kinase activity (in words)” value (sorbitol kinase [2]; 2 mM, Table 2) was “activated” and the “Relative activity (%)” value (sorbitol kinase [2]; [7]) was 180%.

In the case of `[Ba+2].[Cl-].[Cl-]` [BaCl2], the Relateive activity [1, 4] is reported as 32.

For `[Cl-].[Cl-].[Co+2]` [CoCl2], the Relateive activity [1, 4] was 100, the “Effect on sorbitol kinase activity (in words)” value (sorbitol kinase [2]; 2 mM, Table 2) was “inhibited” and the “Relative activity (%)” value (sorbitol kinase [2]; [7]) was 17.3%. The “Effect on enzyme activity (in words)” value (sorbitol kinase [3]; [6]) was “inhibited”.

In the case of `[Cl-].[Cl-].[Mg+2]` [MgCl2], the Relateive activity [1, 4] is reported as 100.

`[Cl-].[Cl-].[Zn+2]` [ZnCl2] showed a Relateive activity [1, 4] of 6.

In the case of `O=P(O)(O)OC[C@@H](O)[C@@H](O)[C@H](O)[C@@H](O)CO` [sorbitol-6-phosphate], the Km [1, 8] is reported as 2000 ± 500 µM and the “Relative activity (5)” value [1] is reported as 100.

`O=P(O)(O)OC1O[C@H](CO)[C@@H](O)[C@H](O)[C@H]1O` (some centres unmarked) [glucose-1-phosphate] was tested, and the “Relative activity (5)” value [1] was 0.

With `[Cl][Ni][Cl]` [NiCl2] the Relateive activity [1, 4] was 100, the “Effect on sorbitol kinase activity (in words)” value (sorbitol kinase [2]; 2 mM, Table 2) was “inhibited” and the “Relative activity (%)” value (sorbitol kinase [2]; [7]) was 14.5%. For the same molecule, the “Effect on enzyme activity (in words)” value (sorbitol kinase [3]; [6]) was “inhibited”.

`O=c1[nH]cnc2c1ncn2[C@@H]1O[C@H](COP(=O)(O)OP(=O)(O)OP(=O)(O)O)[C@@H](O)[C@H]1O` [ITP] was tested, and the “Relative activity as phosphate donor” value (sorbitol kinase [2]) was 40.5%.

With Galactose the “Relative activity (5)” value [1] was 0, the “Relative activity (%)” value (sorbitol kinase [2]; [5]) was 0% and the “Relative activity on substrate” value (sorbitol kinase [3]; [6]) was 0%.
